Patent US6683085B2, “Salt form and polymorphs” (Pfizer Inc., priority 2000, dated 2004)
Structures can show the parent of a compound that is named as a salt.

How the values were obtained:
[1] = Hygroscopicity at 90% RH; type: physicochemical; conditions: for Hygroscopity % (w/w) at 90% RH: Table 4, polymorphic forms of the free base
[2] = Moisture sorption at 30° C. and 45% RH; type: physicochemical
[3] = Solubility of the mesylate salt and free base forms; type: physicochemical
[4] = Water content of the hydrated form of the free base; type: physicochemical
Excerpt: The water content of the hydrated form of the free base (Form D) at ambient conditions is commonly of the order of 9 to 10% (w/w). This is equivalent to 2.5 to 2.8 moles of water per mole of the free base. […] The first mole was lost below 5% RH the second retained down to 1% RH see FIG. 11. It is likely that extended storage of the hydrated form below about 18% RH would result in dehydration. Furthermore, removal of the crystalline water results in the loss of the crystal lattice, the product being predominantly amorphous. This highlights a potential problem in using the conventional hydrated form in manufacturing a pharmaceutical formulation. Dehydration was observed on thermal analysis as a broad double endotherm at 97/113° C. (See FIG. 8)

[5] = Stability over a wide range of conditions; type: physicochemical; conditions: e.g. high light intensity
[6] = tested on: male and female Sprague-Dawley rats; test: Daily oral administration to rats for 1 month; type: in vivo; conditions: rat, 30 mg/kg for 1 month

COc1cc2nc(N3CCc4c(cccc4NS(C)(=O)=O)C3)nc(N)c2c(-c2ccccn2)c1OC [Form B, 4-Amino-6,7-dimethoxy-2-(5-methanesulfonamido-1,2,3,4-tetrahydroisoquinol-2-yl)-5-(2-pyridyl)quinazoline]
Hygroscopity % (w/w) at 90% RH ([1]; 90% RH): 0.27 % (w/w)

COc1cc2nc(N3CCc4c(cccc4NS(C)(=O)=O)C3)nc(N)c2c(-c2ccccn2)c1OC [Form E, 4-Amino-6,7-dimethoxy-2-(5-methanesulfonamido-1,2,3,4-tetrahydroisoquinol-2-yl)-5-(2-pyridyl)quinazoline]
Hygroscopity % (w/w) at 90% RH ([1]; 90% RH): 0.045 % (w/w)

COc1cc2nc(N3CCc4c(cccc4NS(C)(=O)=O)C3)nc(N)c2c(-c2ccccn2)c1OC [Form D, 4-Amino-6,7-dimethoxy-2-(5-methanesulfonamido-1,2,3,4-tetrahydroisoquinol-2-yl)-5-(2-pyridyl)quinazoline, reference compound]
Moisture sorption (% w/w) at 30° C. and 45% RH ([2]; listed as Hydrated form of free base): 11.24 % w/w
Solubility ([3]; 0.9% sodium chloride at 22° C., listed as Hydrated form of free base): 4 micrograms/ml
Solubility ([3]; Water at 22° C., listed as Hydrated form of free base): 12 micrograms/ml
Hygroscopity % (w/w) at 90% RH ([1]; 90% RH): 12.8 % (w/w)
Water content ([4]; 90% RH): 12.8 % (w/w)
Water content, moles of water ([4]; 90% RH): 3.6 moles of water
Water content ([4]; ambient conditions): 9 to 10 % (w/w)
Water content, moles of water per mole of the free base ([4]; ambient conditions): 2.5 to 2.8 moles of water per mole of the free base

COc1cc2nc(N3CCc4c(cccc4NS(C)(=O)=O)C3)nc(N)c2c(-c2ccccn2)c1OC [Mesylate salt, 4-amino-6,7-dimethoxy-2-(5-methanesulfonamido-1,2,3,4-tetrahydroisoquinol-2-yl)-5-(2-pyridyl)quinazoline mesylate]
Moisture sorption (% w/w) at 30° C. and 45% RH ([2]; listed as Mesylate salt (mpt 279° C.), mesylate): 0.56 % w/w
Solubility ([3]; 0.9% sodium chloride at 22° C., mesylate): 120 micrograms/ml
Solubility ([3]; Water at 22° C., mesylate): 880 micrograms/ml
Stability [5]: good stability
Hygroscopicity % (w/w) at 90% RH ([1]; 90% RH, Table 1, mesylate salt): 1.1 % (w/w)
Hygroscopicity compared with another form ([1]; over a wide range of relative humidity, comparison in words): substantially lower than the free base
Adverse effects [6]: no evidence of adverse effects
Changes linked to the pharmacological activity [6]: induced changes linked to the pharmacological activity of the compound

COc1cc2nc(N3CCc4c(cccc4NS(C)(=O)=O)C3)nc(N)c2c(-c2ccccn2)c1OC [Form A, 4-Amino-6,7-dimethoxy-2-(5-methanesulfonamido-1,2,3,4-tetrahydroisoquinol-2-yl)-5-(2-pyridyl)quinazoline]
Moisture sorption (% w/w) at 30° C. and 45% RH ([2]; listed as Free base (mpt 198° C.)): 1.39 % w/w
Solubility ([3]; 0.9% sodium chloride at 22° C., listed as Free base (mpt 198° C.)): 36 micrograms/ml
Solubility ([3]; Water at 22° C., listed as Free base (mpt 198° C.)): 420 micrograms/ml
Hygroscopity % (w/w) at 90% RH ([1]; 90% RH): 2.2 % (w/w)
